Here are results for 2 molecules from patent publication US20200131238A1, “METHOD FOR PROMOTING ADIPOCYTE DIFFERENTIATION AND OBESITY-RELATED DISEASE TREATMENT” (AMERICAN UNIVERSITY, priority 2018, published 2020).

In one assay the test system is NRG1. The experiment in a line: NRG1 isoform expression in stem cells after DAC treatment (RT-qPCR). It is filed as cell-based, human. The source says: A. Microarray data showing that NRG1 is preferentially expressed in clonal cell line AF2, both stem cells and adipocytes. UCP1 is a brown adipose tissue (BAT) marker and UCP2 is a white adipose tissue (WAT) marker. Adiponectin (ADIPOQ) shown as a differentiation control. P-values calculated relative to NRG4 using 1-way ANOVA. Analysis of gene expression in mouse adipose precursor cell lines isolated from inguinal (B) or perigonadal (C) depots of a male mouse. […] NRG, Neuregulin; UCP, uncoupling protein; AdipoQ, adiponectin. Isoform-specific epigenetic induction of NRG1 expression in primary human cells, clonal (D) and raw processed lipoaspirate (E). Expression of NRG1 is induced with demethylating agent decitabine (DAC). Types I-III represent distinct transcriptional start sites within the NRG1 locus and produce different mRNA isoforms (see FIG. 7D for map). The Type III isoform is specifically DAC responsive. P-values derived from Tukey's HSD post-hoc test after ANOVA and are relative to corresponding matched DMSO control. Note Type II isoform expression was not detected in the stem cells.
First, by evaluating gene expression in stem cells immediately after DAC treatments (rather than differentiated cells), we minimized secondary gene expression changes caused by the differentiation process itself. […]

The test system of the next assay is AF2 cells. The experiment in a line: adipose differentiation assay with AF2 clonal cells. It is filed as cell-based, human. An excerpt:
Because patient-derived cells, such as ASCs, are highly heterogeneous, it is vital to ensure that the differences in cell behavior are truly fate decisions and not a measure of non-stem cell contamination (perhaps immune cells, fibroblasts, or other cells). We therefore have performed our experiments with clonally-derived cells expanded in the inventor's laboratory. Many of our experiments use a single clonal line isolated from ASC080414A (Zen-Bio, Inc.), called the AF2 line. Clonal isolation has the advantage of minimizing both genetic and epigenetic variance, which enabled us to identify a highly significant signal in our data (FIG. 6E).
First, by evaluating gene expression in stem cells immediately after DAC treatments (rather than differentiated cells), we minimized secondary gene expression changes caused by the differentiation process itself. Second, hypothesizing that the expression of driver genes will more strongly correlate with differentiation efficiency than passenger genes, we obtained the Pearson's correlation between candidate gene expression in stem cells and the relative formation of adipocytes after 14-18 days of adipogenic induction. Third, we used a clonal cell line (AF2) in order to minimize epigenetic variability between cells. […]

As to `Nc1ncn([C@H]2C[C@H](O)[C@@H](CO)O2)c(=O)n1` [DAC, 5-aza-2′-deoxycitidine], in the assay on NRG1 (1 μM DAC), the “up-regulation of one NRG1 isoform (Type III) relative to DMSO control” value is on record as “approximately 10 fold”. In the assay on NRG1 (DAC vs DMSO), the “increase of NRG1 Type I isoform” value was about 2 fold.

B1: NRG1 EGF-β peptide: recombinant NRG1 EGF-β domain peptide, 65 amino acids, BioLegend Cat # 711104 (protein, listed as Homo sapiens)
chain: SHLVKCAEKEKTFCVNGGECFMVKDLSNPSRYLCKCPNEFTGDRCQNYVMASFYKHLGIEFMEAE
As to B1, the “differentiation induction by recombinant NRG1 peptide added to culture media” value with AF2 cells (AF2 clonal cells) is “able to recapitulate the differentiation induction observed with DAC”. Besides, the “activating dose of NRG1 peptide” value with AF2 cells (stem cells, FIGS. 7A,B,C) was 200 ng/mL.
